Assay results taken from patent US4156724A, “N-acylamino-alpha-arylacetamido cephalosporins and antibacterial compositions and methods containing them” (Sumitomo Chemical Company, Limited, priority 1974, dated 1979).
In brackets after ≈: the same amount, converted by molar mass.

What was measured:
Format in all cases: cell-based
[1] = test system: Staphylococcus aureus 209 P; assay: Minimum Inhibitory Concentration, Staphylococcus aureus 209 P; conditions: Staphylococcus aureus 209 P; for MIC: read-out: Minimum Inhibitory Concentration
Method: (§1) anti-microbial activity tests were carried out on the compounds obtained in the Examples.

[2] = test system: Enterobacter aerogeneus No. 75; assay: Minimum Inhibitory Concentration, Enterobacter aerogeneus No. 75; conditions: Enterobacter aerogeneus No. 75; for MIC: read-out: Minimum Inhibitory Concentration
Method: as §1

Proteus vulgaris HX 19 = assay: Minimum Inhibitory Concentration, Proteus vulgaris HX 19; conditions: Proteus vulgaris HX 19; for MIC: HX19, read-out: Minimum Inhibitory Concentration
Method: as §1

[3] = test system: Pseudomonas aeruginosa 104; assay: Minimum Inhibitory Concentration, Pseudomonas aeruginosa 104; conditions: Pseudomonas aeruginosa 104; for MIC: read-out: Minimum Inhibitory Concentration
Method: as §1

Serratia No. 72 = assay: Minimum Inhibitory Concentration, Serratia No. 72
Method: as §1

Escherichia coli NIHJ = assay: Minimum Inhibitory Concentration, Escherichia coli NIHJ; conditions: Escherichia coli NIHJ; for MIC: read-out: Minimum Inhibitory Concentration
Method: as §1

[4] = test system: Klebsiella pneumoniae 602; assay: Minimum Inhibitory Concentration, Klebsiella pneumoniae 602; conditions: for MIC: Klebsiella pneumoniae, 602, Klebsiella pneumoniae 602, read-out: Minimum Inhibitory Concentration; for Minimum Inhibitory Concentration: Klebsiella pneumoniae 602
Method: as §1

[5] = test system: Staphylococcus aureus FS 289; assay: Minimum Inhibitory Concentration, Staphylococcus aureus FS 289; conditions: Staphylococcus aureus FS 289, strain resistant to penicillin; for MIC: FS289, read-out: Minimum Inhibitory Concentration
Method: as §1
*Staphylococcus aureus FS 289: strain resistant to penicillin

MIC [1]	MIC [2]	MIC (Proteus vulgaris HX 19)	MIC [3]	MIC (Serratia No. 72)	MIC (Escherichia coli NIHJ)	MIC [4]	MIC [5]	SMILES	Minimum Inhibitory Concentration [1]	Minimum Inhibitory Concentration [2]	Minimum Inhibitory Concentration (Proteus vulgaris HX 19)	Minimum Inhibitory Concentration [3]	Minimum Inhibitory Concentration (Serratia No. 72)	Minimum Inhibitory Concentration (Escherichia coli NIHJ)	Minimum Inhibitory Concentration [4]	Minimum Inhibitory Concentration [5]
0.78 µg/mL (≈ 1.16 µM)	12.5 µg/mL (≈ 18.6 µM)	0.39 µg/mL (≈ 0.58 µM)	12.5 µg/mL (≈ 18.6 µM)	50 µg/mL (≈ 74.3 µM)	12.5 µg/mL (≈ 18.6 µM)	3.13 µg/mL (≈ 4.65 µM)	6.25 µg/mL (≈ 9.29 µM)	NC(=O)Nc1ccc(C(NC(=O)c2cnccc2O)C(=O)NC2C(=O)N3C(C(=O)O)=C(CSc4nnc(CO)s4)CSC23)cc1 (centres unmarked) [Example 47]								
0.78 µg/mL (≈ 1.16 µM)	25 µg/mL (≈ 37.2 µM)	0.78 µg/mL (≈ 1.16 µM)	25 µg/mL (≈ 37.2 µM)	50 µg/mL (≈ 74.3 µM)	12.5 µg/mL (≈ 18.6 µM)	6.25 µg/mL (≈ 9.29 µM)	12.5 µg/mL (≈ 18.6 µM)	NC(=O)Nc1cccc(C(NC(=O)c2cccnc2O)C(=O)NC2C(=O)N3C(C(=O)O)=C(CSc4nnc(CO)s4)CSC23)c1 (centres unmarked) [Example 49]								
0.78 µg/mL (≈ 1.24 µM)	25 µg/mL (≈ 39.7 µM)	0.2 µg/mL (≈ 0.318 µM)	12.5 µg/mL (≈ 19.9 µM)	50 µg/mL (≈ 79.4 µM)	12.5 µg/mL (≈ 19.9 µM)	12.5 µg/mL (≈ 19.9 µM)	12.5 µg/mL (≈ 19.9 µM)	Cc1nnc(SCC2=C(C(=O)O)N3C(=O)C(NC(=O)C(NC(=O)c4ccnnc4O)c4ccc(CO)cc4)C3SC2)s1 (centres unmarked) [Example 93]								
1.56 µg/mL (≈ 2.33 µM)	12.5 µg/mL (≈ 18.7 µM)	0.39 µg/mL (≈ 0.582 µM)	6.25 µg/mL (≈ 9.33 µM)	25 µg/mL (≈ 37.3 µM)	6.25 µg/mL (≈ 9.33 µM)	3.13 µg/mL (≈ 4.67 µM)	12.5 µg/mL (≈ 18.7 µM)	Cc1nnc(SCC2=C(C(=O)O)N3C(=O)C(NC(=O)C(NC(=O)c4cnc5sccc5c4O)c4cccc(N)c4)C3SC2)s1 (centres unmarked) [Example 75]								
0.39 µg/mL (≈ 0.634 µM)	12.5 µg/mL (≈ 20.3 µM)	0.1 µg/mL (≈ 0.163 µM)	12.5 µg/mL (≈ 20.3 µM)	50 µg/mL (≈ 81.3 µM)	6.25 µg/mL (≈ 10.2 µM)	6.25 µg/mL (≈ 10.2 µM)	6.25 µg/mL (≈ 10.2 µM)	Cc1nnc(SCC2=C(C(=O)O)N3C(=O)C(NC(=O)[C@H](NC(=O)c4cnccc4O)c4ccc(O)cc4)C3SC2)s1 (stereo partly drawn) [Example 125, 7-[D-α-(4-Hydroxypyridine-3-carbonamido)-α-p-hydroxyphenylacetamido]-3-(2-methyl-1,3,4-thiadiazol-5-yl)thiomethyl-3-cephem-4-carboxylic Acid]								
0.78 µg/mL (≈ 1.23 µM)	3.13 µg/mL (≈ 4.94 µM)	0.1 µg/mL (≈ 0.158 µM)	3.13 µg/mL (≈ 4.94 µM)	12.5 µg/mL (≈ 19.7 µM)	1.56 µg/mL (≈ 2.46 µM)	3.13 µg/mL (≈ 4.94 µM)	6.25 µg/mL (≈ 9.86 µM)	Nc1cccc(C(NC(=O)c2cnc3cccnc3c2O)C(=O)NC2C(=O)N3C(C(=O)O)=C(CSc4cnn[nH]4)CSC23)c1 (centres unmarked) [Example 54]								
0.78 µg/mL (≈ 1.17 µM)	6.25 µg/mL (≈ 9.39 µM)	0.39 µg/mL (≈ 0.586 µM)	3.13 µg/mL (≈ 4.7 µM)	12.5 µg/mL (≈ 18.8 µM)	3.13 µg/mL (≈ 4.7 µM)	3.13 µg/mL (≈ 4.7 µM)	12.5 µg/mL (≈ 18.8 µM)	Cn1nnnc1SCC1=C(C(=O)O)N2C(=O)C(NC(=O)C(NC(=O)c3cnc4c(O)ccnc4c3O)c3ccc(O)cc3)C2SC1 (centres unmarked) [Example 175]								
0.78 µg/mL (≈ 1.12 µM)	6.25 µg/mL (≈ 8.97 µM)	1.56 µg/mL (≈ 2.24 µM)	3.13 µg/mL (≈ 4.49 µM)	25 µg/mL (≈ 35.9 µM)	1.56 µg/mL (≈ 2.24 µM)	3.13 µg/mL (≈ 4.49 µM)	12.5 µg/mL (≈ 17.9 µM)	CSc1cnc2c(O)c(C(=O)N[C@@H](C(=O)NC3C(=O)N4C(C(=O)O)=C(CSc5nnnn5C)CSC34)c3ccc(O)cc3)cnc2n1 (some centres unmarked) [Example 146]								

More lines, now with the values behind:

SMILES	MIC [1]	MIC [2]	MIC (Proteus vulgaris HX 19)	MIC [3]	MIC (Serratia No. 72)	MIC (Escherichia coli NIHJ)	MIC [4]	MIC [5]	Minimum Inhibitory Concentration [1]	Minimum Inhibitory Concentration [2]	Minimum Inhibitory Concentration (Proteus vulgaris HX 19)	Minimum Inhibitory Concentration [3]	Minimum Inhibitory Concentration (Serratia No. 72)	Minimum Inhibitory Concentration (Escherichia coli NIHJ)	Minimum Inhibitory Concentration [4]	Minimum Inhibitory Concentration [5]
NC(=O)Nc1ccc([C@@H](NC(=O)c2cncnc2O)C(=O)N[C@@H]2C(=O)N3C(C(=O)O)=C(CSc4nncs4)CS[C@H]23)cc1 [Example 19]	0.39 µg/mL (≈ 0.606 µM)	25 µg/mL (≈ 38.8 µM)	0.2 µg/mL (≈ 0.311 µM)	12.5 µg/mL (≈ 19.4 µM)	50 µg/mL (≈ 77.7 µM)	12.5 µg/mL (≈ 19.4 µM)	6.25 µg/mL (≈ 9.71 µM)	6.25 µg/mL (≈ 9.71 µM)								
CC(=O)OCC1=C(C(=O)[O-])N2C(=O)C(NC(=O)C(NC(=O)c3cnc4ncncc4c3O)c3ccc(O)cc3)C2SC1.[Na+] (centres unmarked) [Example 139]									1.56 µg/mL	50 µg/mL	3.13 µg/mL	12.5 µg/mL	50 µg/mL	12.5 µg/mL	6.25 µg/mL	12.5 µg/mL
NC(=O)Nc1cccc(C(NC(=O)c2cnccc2O)C(=O)NC2C(=O)N3C(C(=O)O)=C(CSc4ccc(O)nn4)CSC23)c1 (centres unmarked) [Example 46]	0.78 µg/mL (≈ 1.2 µM)	12.5 µg/mL (≈ 19.2 µM)	0.39 µg/mL (≈ 0.598 µM)	12.5 µg/mL (≈ 19.2 µM)	50 µg/mL (≈ 76.6 µM)	12.5 µg/mL (≈ 19.2 µM)	3.13 µg/mL (≈ 4.8 µM)	6.25 µg/mL (≈ 9.58 µM)								
CSc1ncc2c(O)c(C(=O)NC(C(=O)NC3C(=O)N4C(C(=O)[O-])=C(COC(C)=O)CSC34)c3ccc(O)cc3)cnc2n1.[Na+] (centres unmarked) [Example 137]									1.56 µg/mL	50 µg/mL	1.56 µg/mL	12.5 µg/mL	100 µg/mL	12.5 µg/mL	12.5 µg/mL	12.5 µg/mL
Cn1nnnc1SCC1=C(C(=O)O)N2C(=O)C(NC(=O)C(NC(=O)c3cnc4scnc4c3O)c3cccc(NC(N)=O)c3)C2SC1 (centres unmarked) [Example 44]	0.78 µg/mL (≈ 1.12 µM)	6.25 µg/mL (≈ 8.96 µM)	0.39 µg/mL (≈ 0.559 µM)	6.25 µg/mL (≈ 8.96 µM)	12.5 µg/mL (≈ 17.9 µM)	6.25 µg/mL (≈ 8.96 µM)	3.13 µg/mL (≈ 4.49 µM)	6.25 µg/mL (≈ 8.96 µM)								
NC(=O)Nc1ccc([C@@H](NC(=O)c2cnc3cccnc3c2O)C(=O)N[C@@H]2C(=O)N3C(C(=O)O)=C(CSc4nncs4)CS[C@H]23)cc1 [Example 21]	0.78 µg/mL (≈ 1.12 µM)	3.13 µg/mL (≈ 4.51 µM)	0.2 µg/mL (≈ 0.288 µM)	3.13 µg/mL (≈ 4.51 µM)	12.5 µg/mL (≈ 18 µM)	3.13 µg/mL (≈ 4.51 µM)	1.56 µg/mL (≈ 2.25 µM)	3.13 µg/mL (≈ 4.51 µM)								
CC(=O)OCC1=C(C(=O)O)N2C(=O)[C@@H](NC(=O)[C@H](NC(=O)c3cnccc3O)c3cccc(NC(N)=O)c3)[C@H]2SC1 [Example 2]	0.39 µg/mL (≈ 0.667 µM)	25 µg/mL (≈ 42.8 µM)	0.39 µg/mL (≈ 0.667 µM)	6.25 µg/mL (≈ 10.7 µM)	> 200 µg/mL	12.5 µg/mL (≈ 21.4 µM)	12.5 µg/mL (≈ 21.4 µM)	6.25 µg/mL (≈ 10.7 µM)								
COc1ccc2ncc(C(=O)N[C@@H](C(=O)N[C@@H]3C(=O)N4C(C(=O)O)=C(CSc5nnnn5C)CS[C@H]34)c3cccc(NC(N)=O)c3)c(O)c2n1 [Example 39]	0.78 µg/mL (≈ 1.08 µM)	3.13 µg/mL (≈ 4.34 µM)	0.1 µg/mL (≈ 0.139 µM)	3.13 µg/mL (≈ 4.34 µM)	12.5 µg/mL (≈ 17.3 µM)	1.56 µg/mL (≈ 2.16 µM)	1.56 µg/mL (≈ 2.16 µM)	6.25 µg/mL (≈ 8.66 µM)								
